Measured values reported in US20230263808A1 (UNIVERSITY OF FLORIDA RESEARCH FOUNDATION, INCORPORATED, priority 2020, published 2023).
pEC50, pIC50: −log10 of the molar value. Read-outs that look alike come from different tables or passages of the source.

Experiments:
[1] = Body weight change after an overnight fast; format: in vivo, C57BL/6 male mice; details: 10 mg/kg Dex or SR16024, 50 mg/kg SR11466, single dose
Description: (§1) A) The effects of all tested compounds on IL-1β-induced IL-6 production (x-axes) versus GR interaction with the indicated peptides. B-C) The effects of all tested compounds on the indicated GC-regulated phenotypes (x-axes) versus GR interaction with the CHD9_1023 and CENPR_1 peptides (y-axes). D-F) COC plots. Each point represents the Pearson correlation coefficient, r, between a distinct gene expression or GR-peptide interaction assay with assays indicated on the x and y axes. G) The effects of all tested compounds on IL-1β-induced IL-6 production (y-axes) versus insulin-induced protein synthesis. […] IL-β-induced IL-6 production by A549 cells treated with the indicated compounds was compared by AlphaLISA. […] Mice in panel K were subjected to a lactate-tolerance test (LTT).
We were also interested in whether the compounds would show dissociation between Glut4 translocation in skeletal muscle and gluconeogenesis in the liver, but enhanced glucose production is typically studied after weeks or months of GC treatment. However, we reasoned that an overnight fast should enable detection of effects after a single dose. […] Thus, profiling effects of GCs in the physiological context of nutrient deprivation allowed the discovery of two new types of glucocorticoids with improved profiles in skeletal muscle.

[2] = target: T1, glucocorticoid receptor (GR) (Homo sapiens, UniProt P04150); assay: GR-driven (MMTV) luciferase reporter assay, agonist and antagonist mode; format: cell-based
T1 construct: expressed in transfected cells; host or cells: 293T
T1 sequence (P04150 1-777): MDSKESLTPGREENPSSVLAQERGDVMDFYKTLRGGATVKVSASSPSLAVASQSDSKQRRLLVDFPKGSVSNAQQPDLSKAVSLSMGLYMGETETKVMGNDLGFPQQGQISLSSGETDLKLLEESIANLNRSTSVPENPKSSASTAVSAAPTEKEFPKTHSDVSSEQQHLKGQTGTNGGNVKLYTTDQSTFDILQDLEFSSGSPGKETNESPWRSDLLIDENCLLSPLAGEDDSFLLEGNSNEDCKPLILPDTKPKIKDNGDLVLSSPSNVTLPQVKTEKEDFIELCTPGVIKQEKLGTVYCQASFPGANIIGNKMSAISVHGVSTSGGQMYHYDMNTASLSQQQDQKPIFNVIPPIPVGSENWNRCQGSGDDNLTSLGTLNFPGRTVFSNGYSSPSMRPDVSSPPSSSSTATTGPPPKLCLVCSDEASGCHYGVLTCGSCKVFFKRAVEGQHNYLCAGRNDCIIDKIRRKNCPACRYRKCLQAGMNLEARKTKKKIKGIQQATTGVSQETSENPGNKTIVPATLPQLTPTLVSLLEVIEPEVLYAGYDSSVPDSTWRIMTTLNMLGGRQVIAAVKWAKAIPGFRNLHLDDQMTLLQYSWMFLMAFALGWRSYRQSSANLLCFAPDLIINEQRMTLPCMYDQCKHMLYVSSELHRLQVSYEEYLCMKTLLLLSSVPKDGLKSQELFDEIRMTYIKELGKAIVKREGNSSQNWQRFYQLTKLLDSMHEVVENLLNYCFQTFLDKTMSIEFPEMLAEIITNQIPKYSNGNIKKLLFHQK
Description: For native gene expression, C2C12 myotubes were treated compounds for 24 h. For MMTV-Luc assay, steroid-deprived 293T cells were co-transfected with a GR expression plasmid and an MMTV-driven luciferase reporter plasmid. The next day, cells were treated with compounds for 24 hrs. Each point represents the average of triplicate biological measurements for a separate compound. B) AR Luc assay development. Steroid-deprived 293T cells were transfected with AR expression plasmid and an ARR3-tk-driven luciferase reporter. The next day cells were treated with increasing doses of the indicated compounds. Data shown are mean+SD of triplicate measurements. C) AR-Luc assay identified 5 GCs with some AR activity.
as §1
For inclusion in the statistical analyses, assays were required to show high reproducibility, with a Pearson correlation >0.8 between different experiments (FIG. 2, H; FIG. 9, A). […] We also analyzed the effects of the compounds on expression of Fkbp5, Pdk4, and Klf15 mRNAs in C2C12 myotubes, and MMTV-luciferase and androgen receptor (AR) driven-luciferase activity in 293T cells. Fkbp5 and Pdk4 are among the most highly expressed GR target genes, while Klf15 is a known GR target gene that inhibits protein synthesis and stimulates expression of genes that facilitate protein degradation (Shimizu et al., Cell Metabol. 13, 170-182, 2011). We also analyzed the effects of compounds on nuclear translocation of GR using a quantitative HTS approach (Htun et al., Proc. Natl. Acad. Sci. USA 93, 4845-4850, 1996). To visualize the variance of the compounds, we expressed the data as Z score for each assay, in units of standard deviation (FIG. 9, A). […] We used an AR-luciferase assay to test for androgenic activity (FIG. 9, B). From this we identified a handful compounds with AR activity >5% (FIG. 9, C).

LPS-induced TNFα = assay: LPS-induced plasma TNFα levels in mice; format: in vivo, C57BL/6 male mice; details: mice pretreated with ligand
Description: A) Correlation of correlation (COC) plots where each point represents the Pearson correlation coefficient, r, between a distinct gene expression or GR-peptide interaction assay with assays indicated on the x and y axes. B) The effects of all tested compounds on IL-1β-induced secretion of IL-6 (y axes) and GC-regulated phenotypes indicated on the x axes. C) The effects of all tested compounds on IL-1β-induced secretion of IL-6 (y axis) and bone mineralization (x axis). D) IL-1β-induced IL-6 production by A549 cells treated with 10 μM of the indicated compounds was compared by AlphaLISA. E-H) Myoblasts were assayed as described in FIG. 8. I) Representative myoblasts imaged during the mitochondrial potential assay. J) Plasma TNFα levels of C57BL/6 male mice treated pretreated with the indicated ligands. K) Changes in lean mass of mice in panel J were determined by whole-body NMR after an additional 18 h LPS treatment. Data shown are mean+SEM.

Structure (SMILES) | preserving body mass after overnight fast [1] | modulator profile (agonist/antagonist) [2] | pEC50 ([2]; read-out: EC50 in a luciferase reporter assay) | pIC50 ([2]; read-out: IC50 for GR-driven luciferase activity) | LPS-induced TNFα levels in the blood (LPS-induced TNFα) | pIC50 ([2]; read-out: IC50 for displacing 10 nM Dex, antagonist mode, 10 nM Dex) | pIC50 ([2]; read-out: IC50 in the reporter assay) | pEC50 ([2]; assay not given, read-out: EC50)
C=CCOC1CC2(C)C(CCC2(O)C#CC)C2CCc3cc(C(=O)Nc4cccnc4C)ccc3C12 (centres unmarked) [SR11466] | significantly better than Dex | partial agonist | 10.00 | 9.62 | strongly suppressed | – | – | –
CC#CC1(O)CCC2C3CCc4cc(C(=O)Nc5cccnc5C)ccc4C3C(OCc3ccccc3Cl)CC21C (centres unmarked) [SR16024] | slight weight sparing effect | full antagonist | – | – | not inhibitory | 9.00 | 8.82 | –
CC#CC1(O)CCC2C3CCc4cc(C(=O)Nc5cnccc5C)ccc4C3C(O)CC21C (centres unmarked) [SR15421] | – | – | – | – | – | – | – | 6.62
